Experimental data published in patent US20100298141A1, “SUBSTITUTED PYRIDINE N-OXIDE HERBICIDES” (E. I. DU PONT DE NEMOURS AND COMPANY, priority 2007, published 2010).

Legend:
rice = assay: Test C flooded paddy test; type: in vivo, Oryza sativa; settings: Flood
Text: (§1) At time of treatment, test pots were flooded to 3 cm above the soil surface, treated by application of test compounds directly to the paddy water, and then maintained at that water depth for the duration of the test. Treated plants and controls were maintained in a greenhouse for 13 to 15 days, after which time all species were compared to controls and visually evaluated. […] A dash (-) response means no test result.

velvetleaf = assay: Test A pre-/postemergence greenhouse test; type: in vivo, Abutilon theophrasti; settings: for Plant response rating, Velvetleaf: 0 to 100 scale where 0 is no effect and 100 is complete control; for Velvetleaf plant response rating: 0 to 100 scale
Summary of the method: (§2)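 Untreated controls served as the reference for visual injury ratings taken about ten days after spraying. The non-phytotoxic solvent/surfactant formulation was applied preemergence to seeded loam and sand and postemergence to plants two to ten cm high.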

barnyardgrass [1] = assay: Test A pre-/postemergence greenhouse test; type: in vivo, Echinochloa crus-galli; settings: for Plant response rating, Barnyardgrass: 0 to 100 scale where 0 is no effect and 100 is complete control; for Barnyardgrass plant response rating: 0 to 100 scale
Summary of the method: as §2

giant foxtail = assay: Test A pre-/postemergence greenhouse test; type: in vivo, Setaria faberi; settings: for Plant response rating, Foxtail, Giant: 0 to 100 scale where 0 is no effect and 100 is complete control; for Foxtail, Giant plant response rating: 0 to 100 scale
Summary of the method: as §2

corn = assay: Test A pre-/postemergence greenhouse test; type: in vivo, Zea mays; settings: for Plant response rating, Corn: 0 to 100 scale where 0 is no effect and 100 is complete control; for Corn plant response rating: 0 to 100 scale
Summary of the method: as §2

redroot pigweed = assay: Test A pre-/postemergence greenhouse test; type: in vivo, Amaranthus retroflexus; settings: for Plant response rating, Pigweed: 0 to 100 scale where 0 is no effect and 100 is complete control; for Pigweed plant response rating: 0 to 100 scale
Summary of the method: as §2

umbrella sedge = assay: Test C flooded paddy test; type: in vivo, Cyperus difformis; settings: Flood
Text: as §1

morningglory = assay: Test A pre-/postemergence greenhouse test; type: in vivo, Ipomoea spp.; settings: for Plant response rating, Morningglory: 0 to 100 scale where 0 is no effect and 100 is complete control; for Morningglory plant response rating: 0 to 100 scale
Summary of the method: as §2

barnyardgrass [2] = assay: Test C flooded paddy test; type: in vivo, Echinochloa crus-galli; settings: Flood
Text: as §1

crabgrass = assay: Test A pre-/postemergence greenhouse test; type: in vivo, Digitaria sanguinalis; settings: for Plant response rating, Crabgrass, Large: 0 to 100 scale where 0 is no effect and 100 is complete control; for Crabgrass, Large plant response rating: 0 to 100 scale
Summary of the method: as §2

duck salad = assay: Test C flooded paddy test; type: in vivo, Heteranthera limosa; settings: Flood
Text: as §1

wheat = assay: Test A pre-/postemergence greenhouse test; type: in vivo, Triticum aestivum; settings: for Plant response rating, Wheat: 0 to 100 scale where 0 is no effect and 100 is complete control; for Wheat plant response rating: 0 to 100 scale
Summary of the method: as §2

[3] = 62 g ai/ha, scale 0 to 100 (0 no effect, 100 complete control)
[4] = 250 g ai/ha, scale 0 to 100, 0 no effect, 100 complete control, 13 to 15 days
[5] = Postemergence, 500 g ai/ha, 0 is no effect, 100 is complete control
[6] = Preemergence, 125 g ai/ha, 0 no effect, 100 complete control
[7] = 31 g ai/ha, scale 0 to 100 (0 no effect, 100 complete control)
[8] = 62 g ai/ha, scale 0 to 100, 0 no effect, 100 complete control, 13 to 15 days
[9] = 125 g ai/ha, scale 0 to 100, 0 no effect, 100 complete control, 13 to 15 days
[10] = 250 g ai/ha, scale 0 to 100 (0 no effect, 100 complete control)
[11] = Postemergence, 125 g ai/ha, 0 is no effect, 100 is complete control

Cn1nc(C(F)(F)F)c(C[S+]([O-])c2cc(C(C)(C)C)cc[n+]2[O-])c1OCC(F)(F)F (racemic) [Compound 61]
Plant response rating, Rice (rice; [3]): 20
Plant response rating, Rice (rice; [4]): 50
Plant response rating, Velvetleaf (velvetleaf; Postemergence, 125 g ai/ha): 0
Velvetleaf plant response rating (velvetleaf; [5]): 70
Velvetleaf plant response rating (velvetleaf; [6]): 0
Plant response rating, Velvetleaf (velvetleaf; Preemergence, 500 g ai/ha): 100
Plant response rating, Barnyardgrass (barnyardgrass [1]; Postemergence, 125 g ai/ha): 30
Barnyardgrass plant response rating (barnyardgrass [1]; [5]): 80
Barnyardgrass plant response rating (barnyardgrass [1]; [6]): 0
Plant response rating, Barnyardgrass (barnyardgrass [1]; Preemergence, 500 g ai/ha): 100
Plant response rating, Foxtail, Giant (giant foxtail; Postemergence, 125 g ai/ha): 50
Foxtail, Giant plant response rating (giant foxtail; [5]): 70
Foxtail, Giant plant response rating (giant foxtail; [6]): 100
Plant response rating, Foxtail, Giant (giant foxtail; Preemergence, 500 g ai/ha): 100
Plant response rating, Corn (corn; Postemergence, 125 g ai/ha): 30
Corn plant response rating (corn; [5]): 70
Corn plant response rating (corn; [6]): 0
Plant response rating, Corn (corn; Preemergence, 500 g ai/ha): 50
Plant response rating, Pigweed (redroot pigweed; Postemergence, 125 g ai/ha): 40
Pigweed plant response rating (redroot pigweed; [5]): 60
Pigweed plant response rating (redroot pigweed; [6]): 80
Plant response rating, Pigweed (redroot pigweed; Preemergence, 500 g ai/ha): 100
Plant response rating, Sedge, Umbrella (umbrella sedge; [3]): 0
Plant response rating, Sedge, Umbrella (umbrella sedge; [4]): 100
Plant response rating, Morningglory (morningglory; Postemergence, 125 g ai/ha): 0
Morningglory plant response rating (morningglory; [5]): 70
Morningglory plant response rating (morningglory; [6]): 60
Plant response rating, Morningglory (morningglory; Preemergence, 500 g ai/ha): 100
Plant response rating, Barnyardgrass (barnyardgrass [2]; [3]): 30
Plant response rating, Barnyardgrass (barnyardgrass [2]; [4]): 30
Plant response rating, Crabgrass, Large (crabgrass; Postemergence, 125 g ai/ha): 30
Crabgrass, Large plant response rating (crabgrass; [5]): 60
Crabgrass, Large plant response rating (crabgrass; [6]): 70
Plant response rating, Crabgrass, Large (crabgrass; Preemergence, 500 g ai/ha): 100
Plant response rating, Ducksalad (duck salad; [3]): 0
Plant response rating, Ducksalad (duck salad; [4]): 90
Plant response rating, Wheat (wheat; Postemergence, 125 g ai/ha): 50
Wheat plant response rating (wheat; [5]): 60
Wheat plant response rating (wheat; [6]): 50
Plant response rating, Wheat (wheat; Preemergence, 500 g ai/ha): 100

Cn1nc(C(F)(F)F)c(CS(=O)(=O)c2ccc(Br)c[n+]2[O-])c1OC(F)F [Compound 13]
Plant response rating, Rice (rice; [7]): 0
Plant response rating, Rice (rice; [8]): 50
Plant response rating, Rice (rice; [9]): 65
Plant response rating, Rice (rice; [10]): 85
Velvetleaf plant response rating (velvetleaf; [11]): 0
Velvetleaf plant response rating (velvetleaf; [5]): 0
Velvetleaf plant response rating (velvetleaf; [6]): 0
Plant response rating, Velvetleaf (velvetleaf; Preemergence, 500 g ai/ha): 0
Barnyardgrass plant response rating (barnyardgrass [1]; [11]): 0
Barnyardgrass plant response rating (barnyardgrass [1]; [5]): 0
Barnyardgrass plant response rating (barnyardgrass [1]; [6]): 50
Plant response rating, Barnyardgrass (barnyardgrass [1]; Preemergence, 500 g ai/ha): 90
Foxtail, Giant plant response rating (giant foxtail; [11]): 0
Foxtail, Giant plant response rating (giant foxtail; [5]): 10
Foxtail, Giant plant response rating (giant foxtail; [6]): 50
Plant response rating, Foxtail, Giant (giant foxtail; Preemergence, 500 g ai/ha): 70
Corn plant response rating (corn; [11]): 0
Corn plant response rating (corn; [5]): 0
Corn plant response rating (corn; [6]): 0
Plant response rating, Corn (corn; Preemergence, 500 g ai/ha): 0
Pigweed plant response rating (redroot pigweed; [11]): 0
Pigweed plant response rating (redroot pigweed; [5]): 0
Plant response rating, Sedge, Umbrella (umbrella sedge; [7]): 0
Plant response rating, Sedge, Umbrella (umbrella sedge; [8]): 0
Plant response rating, Sedge, Umbrella (umbrella sedge; [9]): 20
Plant response rating, Sedge, Umbrella (umbrella sedge; [10]): 100
Morningglory plant response rating (morningglory; [11]): 0
Morningglory plant response rating (morningglory; [5]): 0
Morningglory plant response rating (morningglory; [6]): 0
Plant response rating, Morningglory (morningglory; Preemergence, 500 g ai/ha): 0
Plant response rating, Barnyardgrass (barnyardgrass [2]; [7]): 0
Plant response rating, Barnyardgrass (barnyardgrass [2]; [8]): 0
Plant response rating, Barnyardgrass (barnyardgrass [2]; [9]): 20
Plant response rating, Barnyardgrass (barnyardgrass [2]; [10]): 80
Crabgrass, Large plant response rating (crabgrass; [11]): 0
Crabgrass, Large plant response rating (crabgrass; [5]): 30
Crabgrass, Large plant response rating (crabgrass; [6]): 40
Plant response rating, Crabgrass, Large (crabgrass; Preemergence, 500 g ai/ha): 80
Plant response rating, Ducksalad (duck salad; [7]): 0
Plant response rating, Ducksalad (duck salad; [8]): 0
Plant response rating, Ducksalad (duck salad; [9]): 0
Plant response rating, Ducksalad (duck salad; [10]): 95
Wheat plant response rating (wheat; [11]): 0
Wheat plant response rating (wheat; [5]): 0
Wheat plant response rating (wheat; [6]): 0
Plant response rating, Wheat (wheat; Preemergence, 500 g ai/ha): 0

Cn1nc(C(F)(F)F)c(CS(=O)(=O)c2cc(Br)cc[n+]2[O-])c1Cl [Compound 32]
Plant response rating, Rice (rice; [7]): 0
Plant response rating, Rice (rice; [8]): 0
Plant response rating, Rice (rice; [9]): 0
Plant response rating, Rice (rice; [4]): 0
Velvetleaf plant response rating (velvetleaf; [11]): 0
Velvetleaf plant response rating (velvetleaf; [5]): 0
Velvetleaf plant response rating (velvetleaf; [6]): 0
Plant response rating, Velvetleaf (velvetleaf; Preemergence, 500 g ai/ha): 0
Barnyardgrass plant response rating (barnyardgrass [1]; [11]): 0
Barnyardgrass plant response rating (barnyardgrass [1]; [5]): 30
Barnyardgrass plant response rating (barnyardgrass [1]; [6]): 0
Plant response rating, Barnyardgrass (barnyardgrass [1]; Preemergence, 500 g ai/ha): 60
Foxtail, Giant plant response rating (giant foxtail; [11]): 0
Foxtail, Giant plant response rating (giant foxtail; [5]): 0
Foxtail, Giant plant response rating (giant foxtail; [6]): 0
Plant response rating, Foxtail, Giant (giant foxtail; Preemergence, 500 g ai/ha): 70
Corn plant response rating (corn; [11]): 0
Corn plant response rating (corn; [5]): 0
Corn plant response rating (corn; [6]): 0
Plant response rating, Corn (corn; Preemergence, 500 g ai/ha): 20
Pigweed plant response rating (redroot pigweed; [11]): 0
Pigweed plant response rating (redroot pigweed; [5]): 0
Pigweed plant response rating (redroot pigweed; [6]): 0
Plant response rating, Pigweed (redroot pigweed; Preemergence, 500 g ai/ha): 100
Plant response rating, Sedge, Umbrella (umbrella sedge; [7]): 0
Plant response rating, Sedge, Umbrella (umbrella sedge; [8]): 0
Plant response rating, Sedge, Umbrella (umbrella sedge; [9]): 0
Plant response rating, Sedge, Umbrella (umbrella sedge; [4]): 50
Morningglory plant response rating (morningglory; [11]): 0
Morningglory plant response rating (morningglory; [5]): 10
Morningglory plant response rating (morningglory; [6]): 0
Plant response rating, Morningglory (morningglory; Preemergence, 500 g ai/ha): 0
Plant response rating, Barnyardgrass (barnyardgrass [2]; [7]): 0
Plant response rating, Barnyardgrass (barnyardgrass [2]; [8]): 0
Plant response rating, Barnyardgrass (barnyardgrass [2]; [9]): 0
Plant response rating, Barnyardgrass (barnyardgrass [2]; [4]): 0
Crabgrass, Large plant response rating (crabgrass; [11]): 0
Crabgrass, Large plant response rating (crabgrass; [5]): 0
Crabgrass, Large plant response rating (crabgrass; [6]): 0
Plant response rating, Crabgrass, Large (crabgrass; Preemergence, 500 g ai/ha): 0
Plant response rating, Ducksalad (duck salad; [7]): 0
Plant response rating, Ducksalad (duck salad; [8]): 0
Plant response rating, Ducksalad (duck salad; [9]): 0
Plant response rating, Ducksalad (duck salad; [4]): 50
Wheat plant response rating (wheat; [11]): 0
Wheat plant response rating (wheat; [5]): 0
Wheat plant response rating (wheat; [6]): 0
Plant response rating, Wheat (wheat; Preemergence, 500 g ai/ha): 30
